Data reported in ChEMBL document CHEMBL3046011, “QSAR analysis of 2-sulfonylphenyl-3-phenyl-indole derivatives as novel anti-inflammatory compounds” (Med Chem Res, 2009).

target: T1, Prostaglandin G/H synthase 2 (Mus musculus, UniProt Q05769); test: Inhibition of COX2 in Mus musculus (mouse) peritoneal macrophage
T1 sequence (Q05769 whole entry): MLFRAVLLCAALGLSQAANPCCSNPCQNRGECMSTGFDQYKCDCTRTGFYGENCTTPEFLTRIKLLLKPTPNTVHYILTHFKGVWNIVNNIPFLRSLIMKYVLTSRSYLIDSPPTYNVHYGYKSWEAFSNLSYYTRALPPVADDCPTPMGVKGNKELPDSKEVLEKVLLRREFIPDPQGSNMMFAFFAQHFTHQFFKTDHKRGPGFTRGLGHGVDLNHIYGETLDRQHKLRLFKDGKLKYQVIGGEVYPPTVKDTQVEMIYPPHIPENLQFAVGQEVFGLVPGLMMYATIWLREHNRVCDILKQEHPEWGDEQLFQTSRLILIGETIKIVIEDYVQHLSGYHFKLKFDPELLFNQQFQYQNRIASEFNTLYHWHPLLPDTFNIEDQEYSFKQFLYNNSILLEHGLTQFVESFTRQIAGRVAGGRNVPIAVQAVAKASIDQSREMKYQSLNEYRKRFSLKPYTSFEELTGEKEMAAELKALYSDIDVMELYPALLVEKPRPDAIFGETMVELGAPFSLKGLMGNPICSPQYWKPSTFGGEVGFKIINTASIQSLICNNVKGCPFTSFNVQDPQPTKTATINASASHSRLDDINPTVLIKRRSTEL

Compound | IC50 [nM]
COc1ccc(-c2c(-c3ccc(S(C)(=O)=O)cc3)[nH]c3ccccc23)cc1 | 0.02
CS(=O)(=O)c1ccc(-c2[nH]c3ccccc3c2-c2ccccc2)cc1 | 0.603
NS(=O)(=O)c1ccc(-c2[nH]c3ccc(Cl)cc3c2-c2ccccc2)cc1 | 0.141
NS(=O)(=O)c1ccc(-c2[nH]c3ccccc3c2-c2ccccc2)cc1 | 0.0891
CC(=O)NS(=O)(=O)c1ccc(-c2[nH]c3ccccc3c2-c2ccccc2)cc1 | 0.178
NS(=O)(=O)c1ccc(-c2[nH]c3ccccc3c2-c2ccc(Cl)cc2)cc1 | 33.1
Cc1ccc(-c2c(-c3ccc(S(C)(=O)=O)cc3)[nH]c3ccccc23)cc1C | 0.17
Cc1ccc2[nH]c(-c3ccc(S(N)(=O)=O)cc3)c(-c3ccccc3)c2c1 | 0.02
Cc1ccc2[nH]c(-c3ccc(S(C)(=O)=O)cc3)c(-c3ccccc3)c2c1 | 0.282
